Assay: Phase 1 study of Compound A for NSCLC, safety
Assay type: in vivo, human
Experimental: A first-in-human phase 1 study is ongoing to evaluate the safety of Compound A, including a dose-escalation phase to characterize dose-limiting toxicities (DLTs) (FIG. 6) and determine the recommended phase 2 dose (NCT04820023). Eligibility criteria included advanced-stage NSCLC with an activating EGFR mutation and disease progression on at least one prior EGFR inhibitor. A measurable lesion was required for exploratory evaluation of efficacy. Starting from 20 mg QD (once daily; every day), Compound A dose levels were escalated after evaluating dose-DLT relationships and toxicity probabilities during the first 21 days of dosing.
All enrolled patients underwent ctDNA analysis (Guardant360, Guardant Health) at screening and every 6 weeks throughout treatment, which was compared to imaging at the same time points. Changes in allelic frequency were calculated as per the proprietary algorithm of Guardant Health (7). Intra-patient dose-escalation to the next dose level was allowed. Plasma samples were collected at prespecified time points at cycle 2, Day 1 following multiple doses (steady state) of Compound A in the dose-escalation cohorts, and the plasma concentrations were determined by a validated LC-MS/MS method with the LLOQ established at 1 ng/mL.

## COc1cc(N2CCC(N3CCN(C)CC3)CC2)ccc1Nc1ncc(Cl)c(Nc2ccccc2NS(C)(=O)=O)n1 [Compound A, N-(2-((5-chloro-2-((2-methoxy-4-(4-(4-methylpiperazin-1-yl)piperidin-1-yl)phenyl)amino)pyrimidin-4-yl)amino)phenyl)methanesulfonamide]
20 mg QD (N = 4)
  Anorexia, All grade, %: 0%
  Anorexia, Grade ≥ 3, %: 0%
  Any TEAE, All grade, %: 75%
  Any TEAE, Grade ≥ 3, %: 25%
  Constipation, All grade, %: 0%
  Constipation, Grade ≥ 3, %: 0%
  Diarrhea, All grade, %: 0%
  Diarrhea, Grade ≥ 3, %: 0%
  Dizziness, All grade, %: 0%
  Dizziness, Grade ≥ 3, %: 0%
  Dyspepsia, All grade, %: 0%
  Dyspepsia, Grade ≥ 3, %: 0%
  Nausea, All grade, %: 0%
  Nausea, Grade ≥ 3, %: 0%
  Neutropenia/Neutrophil count decreased, All grade, %: 0%
  Neutropenia/Neutrophil count decreased, Grade ≥ 3, %: 0%
  Platelet count decreased, All grade, %: 0%
  Platelet count decreased, Grade ≥ 3, %: 0%
  Serious TEAE, All grade, %: 0%
  Serious TEAE, Grade ≥ 3, %: 0%
  TEAE leading to Dose interruption, All grade, %: 0%
  TEAE leading to Dose interruption, Grade ≥ 3, %: 0%
  TEAE leading to Dose permanently discontinued, All grade, %: 0%
  TEAE leading to Dose permanently discontinued, Grade ≥ 3, %: 0%
  TEAE leading to Dose reduced, All grade, %: 0%
  TEAE leading to Dose reduced, Grade ≥ 3, %: 0%
  Vomiting, All grade, %: 0%
  Vomiting, Grade ≥ 3, %: 0%
80 mg QD (N = 3)
  Anorexia, All grade, %: 0%
  Anorexia, Grade ≥ 3, %: 0%
  Any TEAE, All grade, %: 67%
  Any TEAE, Grade ≥ 3, %: 0%
  Constipation, All grade, %: 33%
  Constipation, Grade ≥ 3, %: 0%
  Diarrhea, All grade, %: 0%
  Diarrhea, Grade ≥ 3, %: 0%
  Dizziness, All grade, %: 0%
  Dizziness, Grade ≥ 3, %: 0%
  Dyspepsia, All grade, %: 33%
  Dyspepsia, Grade ≥ 3, %: 0%
  Nausea, All grade, %: 0%
  Nausea, Grade ≥ 3, %: 0%
  Neutropenia/Neutrophil count decreased, All grade, %: 0%
  Neutropenia/Neutrophil count decreased, Grade ≥ 3, %: 0%
  Platelet count decreased, All grade, %: 0%
  Platelet count decreased, Grade ≥ 3, %: 0%
  Serious TEAE, All grade, %: 0%
  Serious TEAE, Grade ≥ 3, %: 0%
  TEAE leading to Dose interruption, All grade, %: 0%
  TEAE leading to Dose interruption, Grade ≥ 3, %: 0%
  TEAE leading to Dose permanently discontinued, All grade, %: 0%
  TEAE leading to Dose permanently discontinued, Grade ≥ 3, %: 0%
  TEAE leading to Dose reduced, All grade, %: 0%
  TEAE leading to Dose reduced, Grade ≥ 3, %: 0%
  Vomiting, All grade, %: 33%
  Vomiting, Grade ≥ 3, %: 0%
160 mg QD (N = 4)
  Anorexia, All grade, %: 0%
  Anorexia, Grade ≥ 3, %: 0%
  Any TEAE, All grade, %: 75%
  Any TEAE, Grade ≥ 3, %: 0%
  Constipation, All grade, %: 25%
  Constipation, Grade ≥ 3, %: 0%
  Diarrhea, All grade, %: 0%
  Diarrhea, Grade ≥ 3, %: 0%
  Dizziness, All grade, %: 0%
  Dizziness, Grade ≥ 3, %: 0%
  Dyspepsia, All grade, %: 0%
  Dyspepsia, Grade ≥ 3, %: 0%
  Nausea, All grade, %: 25%
  Nausea, Grade ≥ 3, %: 0%
  Neutropenia/Neutrophil count decreased, All grade, %: 0%
  Neutropenia/Neutrophil count decreased, Grade ≥ 3, %: 0%
  Platelet count decreased, All grade, %: 0%
  Platelet count decreased, Grade ≥ 3, %: 0%
  Serious TEAE, All grade, %: 25%
  Serious TEAE, Grade ≥ 3, %: 0%
  TEAE leading to Dose interruption, All grade, %: 0%
  TEAE leading to Dose interruption, Grade ≥ 3, %: 0%
  TEAE leading to Dose permanently discontinued, All grade, %: 0%
  TEAE leading to Dose permanently discontinued, Grade ≥ 3, %: 0%
  TEAE leading to Dose reduced, All grade, %: 0%
  TEAE leading to Dose reduced, Grade ≥ 3, %: 0%
  Vomiting, All grade, %: 25%
  Vomiting, Grade ≥ 3, %: 0%
320 mg QD
  Treatment-related adverse events of grade ≥3: occurred
320 mg QD (N = 3)
  Anorexia, All grade, %: 33%
  Anorexia, Grade ≥ 3, %: 0%

Source: patent US20230330112A1, “COMPOSITION AND TREATMENT FOR CANCER WITH MUTATIONS” (BRIDGE BIOTHERAPEUTICS, INC., priority 2022, published 2023)
